From paper PMC2717892 (2009)

Tested on: T5 (DNA, single strand) TTTTT
Test: direct excitation Eu
Settings: 50 mM NaNO3; 20 mM HEPES pH 7.0; 25 µM complex; 5–50 µM nucleic acid

binding: weak
SMILES: NC(=O)CN1CCN(CC(N)=O)CCN(Cc2ccc(CN3CCN(CC(N)=O)CCN(CC(N)=O)CCN(CC(N)=O)CC3)cc2)CCN(CC(N)=O)CC1.O.O.O.O.[Eu+3].[Eu+3]
